SMILES strings stand for the structures.

Assay [1] addresses T1, Dihydroorotate dehydrogenase (fumarate) (Leishmania major, UniProt Q4QEW7).
T1 sequence (Q4QEW7 whole entry): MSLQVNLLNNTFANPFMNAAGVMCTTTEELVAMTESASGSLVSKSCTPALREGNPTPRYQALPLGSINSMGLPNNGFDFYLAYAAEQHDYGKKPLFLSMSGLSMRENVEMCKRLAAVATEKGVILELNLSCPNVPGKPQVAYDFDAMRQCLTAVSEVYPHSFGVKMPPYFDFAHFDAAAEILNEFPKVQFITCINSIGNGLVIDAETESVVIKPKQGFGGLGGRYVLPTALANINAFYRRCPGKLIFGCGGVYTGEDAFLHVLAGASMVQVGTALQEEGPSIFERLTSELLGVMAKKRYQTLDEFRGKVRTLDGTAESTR
As to the kind of experiment: Inhibition of recombinant oligo-histidine-tagged Leishmania major DHODH expressed in Escherichia coli BL21(DE3) cells using DHO as substrate measured after 60 secs. Particulars: read-out: IC50.

Assay [2] relates to Leishmania donovani. As to the kind of experiment: Antileishmanial activity against Leishmania donovani MHOM/ET/67/L82 amastigotes after 72 hrs by Alamar Blue assay. Format: functional, organism-based. The settings on record: MHOM/ET/67/L82, 72 h.
The subject of assay [3] is Trypanosoma brucei rhodesiense. The assay can be described thus: Antitrypanosomal activity against Trypanosoma brucei rhodesiense STIB900 trypomastigotes after 72 hrs by Alamar Blue assay. Particulars: STIB 900, 72 h. Type of assay: functional, organism-based.
Assay [4] concerns Trypanosoma cruzi. As to the kind of experiment: Antitrypanosomal activity against Trypanosoma cruzi Tulahuen C2C4 trypomastigotes infected in rat skeletal myoblasts L-6 cells after 96 hrs by CPRG/Nonidet reagent based spectrophotometric method. Type of assay: functional, organism-based. Particulars: Tulahuen C2C4, L6, 96 h.
The test system of assay [5] is Trypanosoma cruzi. As to the kind of experiment: Antitrypanosomal activity against Trypanosoma cruzi Y amastigotes infected in Swiss albino mouse measured on day 7 post infection by Gential violet staining-based assay. Type of assay: functional, organism-based. The settings on record: 168 h.
Assay [6] concerns Leishmania donovani. The assay can be described thus: Antileishmanial activity against Leishmania donovani. Type of assay: functional, organism-based.
Assay [7] deals with Leishmania amazonensis. The assay can be described thus: Antileishmanial activity against Leishmania amazonensis. Type of assay: functional, organism-based.
The test system of a further assay is Leishmania braziliensis. As to the kind of experiment: Antileishmanial activity against Leishmania braziliensis. Format: functional, organism-based.
Assay [8] concerns Leishmania infantum. The assay can be described thus: Antileishmanial activity against Leishmania infantum MHOM/MA(BE)/6 amastigotes infected in mouse J774A.1 cells after 120 hrs by Giemsa staining-based assay. Format: functional, organism-based. The settings on record: MHOM/MA(BE)/6, J774.A1, 120 h.
The test system of assay [9] is Leishmania infantum. As to the kind of experiment: Antileishmanial activity against Leishmania infantum MHOM/MA(BE)/6 promastigotes infected in mouse J774A.1 cells after 120 hrs by Giemsa staining-based assay. Format: functional, organism-based. Particulars: MHOM/MA(BE)/6, J774.A1, 120 h.
Assay [10] relates to Trypanosoma brucei rhodesiense. As to the kind of experiment: Antitrypanosomal activity against Trypanosoma brucei rhodesiense STIB 900 trypomastigotes after 72 hrs by Alamar Blue assay. Format: functional, organism-based. Particulars: STIB 900, 72 h.
Assay [11] concerns Leishmania amazonensis. As to the kind of experiment: Antileishmanial activity against Leishmania amazonensis MHOM/77BR/LTB0016 promastigotes after 72 hrs by MTT assay. Particulars: MHOM/77BR/LTB0016, 72 h. Format: functional, organism-based.
The test system of assay [12] is Leishmania amazonensis. As to the kind of experiment: Antileishmanial activity against Leishmania amazonensis MHOM/77BR/LTB0016 amastigotes infected in mouse peritoneal macrophages after 48 hrs by Giemsa staining-based assay. Type of assay: functional, organism-based. The settings on record: MHOM/77BR/LTB0016, 48 h.
Assay [13] deals with Leishmania amazonensis. The assay can be described thus: Antileishmanial activity against Leishmania amazonensis WHOM/BR/75/Josefa promastigotes after 72 hrs by Neubauer chamber method. Type of assay: functional, organism-based.
The subject of assay [14] is Leishmania amazonensis. As to the kind of experiment: Antileishmanial activity against Leishmania amazonensis WHOM/BR/75/Josefa amastigotes after 72 hrs by Neubauer chamber method. Type of assay: functional, organism-based.
Assay [15] relates to Trypanosoma cruzi. As to the kind of experiment: Antitrypanosomal activity against Trypanosoma cruzi Y amastigotes after 24 hrs by Gential violet staining-based assay. Type of assay: functional, organism-based.
The target of assay [16] is T2, Dihydroorotate dehydrogenase (fumarate) (Leishmania major) (UniProt Q4QEW7).
T2 sequence (whole entry): T1 sequence (Q4QEW7 whole entry)
The assay can be described thus: Binding affinity to Leishmania major DHODH assessed as change in melting temperature at 100 uM by differential scanning fluorimetry-based ThermoFMN assay. On the technique in general: Differential scanning fluorimetry follows unfolding on heating by fluorescence.

The target of assay [17] is T2, Dihydroorotate dehydrogenase (fumarate) (Leishmania major). As to the kind of experiment: Binding affinity to Leishmania major DHODH assessed as change in melting temperature at 500 uM by differential scanning fluorimetry-based ThermoFMN assay.
For assay [18] the target is unchanged. As to the kind of experiment: Binding affinity to Leishmania major DHODH assessed as change in melting temperature at 1000 uM by differential scanning fluorimetry-based ThermoFMN assay.
Assay [19] shares this target. As to the kind of experiment: Binding affinity to Leishmania major DHODH assessed as change in melting temperature at 100 uM by SYPRO orange dye-based differential scanning fluorimetry.
The target is the same in assay [20]. The assay can be described thus: Binding affinity to Leishmania major DHODH assessed as change in melting temperature at 500 uM by SYPRO orange dye-based differential scanning fluorimetry.
The target is the same in assay [21]. The assay can be described thus: Binding affinity to Leishmania major DHODH assessed as change in melting temperature at 1000 uM by SYPRO orange dye-based differential scanning fluorimetry.
The test system of assay [22] is Trypanosoma cruzi. The assay can be described thus: Antitrypanosomal activity against Trypanosoma cruzi trypomastigotes. Type of assay: functional, organism-based.
For assay [23], the system named is Trypanosoma brucei rhodesiense. The assay can be described thus: Antitrypanosomal activity against Trypanosoma brucei rhodesiense STIB900 trypomastigotes. Format: functional, organism-based.
The subject of assay [24] is Leishmania donovani. The assay can be described thus: Antileishmanial activity against Leishmania donovani amastigotes. Format: functional, organism-based.
Assay [25] concerns the target Dihydroorotate dehydrogenase (quinone), mitochondrial (Homo sapiens) (UniProt Q02127). The assay can be described thus: Inhibition of human DHODH at 100 uM.
Assay [26] deals with T2, Dihydroorotate dehydrogenase (fumarate) (Leishmania major). The assay can be described thus: Inhibition of recombinant oligo-histidine-tagged Leishmania major DHODH expressed in Escherichia coli BL21(DE3) cells at 100 uM using DHO as substrate measured after 60 secs.

Dihydroorotate dehydrogenase (quinone), mitochondrial (Homo sapiens), sequence (Q02127 whole entry): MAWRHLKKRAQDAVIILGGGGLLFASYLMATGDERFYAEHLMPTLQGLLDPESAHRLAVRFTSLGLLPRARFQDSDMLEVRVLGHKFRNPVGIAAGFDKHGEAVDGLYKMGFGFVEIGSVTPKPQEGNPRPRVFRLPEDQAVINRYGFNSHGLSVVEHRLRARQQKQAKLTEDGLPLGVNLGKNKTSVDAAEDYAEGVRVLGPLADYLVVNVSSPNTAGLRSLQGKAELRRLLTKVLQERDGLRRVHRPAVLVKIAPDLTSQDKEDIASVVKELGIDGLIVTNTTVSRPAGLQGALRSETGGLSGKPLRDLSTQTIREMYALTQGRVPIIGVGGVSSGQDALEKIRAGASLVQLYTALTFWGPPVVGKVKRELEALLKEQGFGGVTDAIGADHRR

What is called IC50 is the concentration that inhibits the measured activity by half. For `CC[C@H](CC[C@H](C)[C@H]1CC[C@H]2[C@@H]3CC=C4C[C@@H](O)CC[C@]4(C)[C@H]3CC[C@]12C)C(C)C`, the IC50 in [1] stood at 414 µM; in the assay with Leishmania donovani [2] it was 27.8 µM; in assay [3], 86.1 µM; with Trypanosoma cruzi [4], 35.4 µM.
For `COc1cc(O)c2c(=O)cc(-c3ccc(OC)c(OC)c3)oc2c1`, the IC50 (in assay [1]; in the assay on Trypanosoma cruzi [5]) was 217 µM in each case.
As for `O=c1ccc2ccccc2o1` [COUMARIN], the IC50 in assay [1] amounted to 642 µM; in the assay with Leishmania donovani [6] it was 342 µM; with Leishmania amazonensis [7], 342 µM; with Leishmania braziliensis, 342 µM.
`C/C=C(/C)C(=O)O[C@H]1[C@H](OC(C)=O)[C@]2(CO)[C@H](O)C[C@]3(C)C(=CC[C@@H]4[C@@]5(C)CC[C@H](O[C@@H]6O[C@H](C(=O)O)[C@@H](O[C@@H]7O[C@H](CO)[C@@H](O)[C@H](O)[C@H]7O)[C@H](O)[C@H]6O[C@@H]6O[C@H](CO)[C@@H](O)[C@H](O)[C@H]6O)[C@](C)(CO)[C@@H]5CC[C@]43C)[C@@H]2CC1(C)C` [ESCIN IB]: the figures for the IC50 (in [1]; in the assay with Leishmania infantum [8]; with Leishmania infantum [9]) were 478 µM, 1.37 µM and above 14.1 µM, respectively.
In the case of `COc1cc(/C=C/C(=O)O)ccc1O` [FERULATE], the IC50 in assay [1] was determined as 413 µM; with Leishmania donovani [2], 155 µM; with Trypanosoma cruzi [4] it was 155 µM; in assay [10] it was 428 µM; with Leishmania amazonensis [11], 1.7 µM; in the assay with Leishmania amazonensis [12] it was 7.9 µM.
For the molecule `C=C1CC[C@H]2[C@@](C)(CCC[C@@]2(C)C(=O)O)[C@@H]1CC/C(C)=C/C(=O)O`, the concentration for half-maximal inhibition (IC50) in assay [1] was 707 µM; in the assay with Leishmania amazonensis [13], 83.7 to 111 µM; with Leishmania amazonensis [14], 47.4 to 50.8 µM.
In the case of `O=C(O)/C=C/c1ccc(O)c(O)c1` [CAFFEIC ACID], the concentration for half-maximal inhibition (IC50) in assay [1] came out at 1750 µM; with Leishmania donovani [2] it was 31.1 µM; in the assay with Trypanosoma cruzi [4], 167 µM; in assay [10], 6.11 µM; with Leishmania amazonensis [11], 5.2 µM; with Leishmania amazonensis [12], 16 µM.
For `C=C[C@]1(C)C=C2CC[C@H]3[C@@](C)(CCC[C@]3(C)C(=O)O)[C@@H]2CC1`, the results for the IC50 (in assay [1]; in the assay on Trypanosoma cruzi [15]) were 1320 µM and 386 µM, respectively.
The term ΔTm denotes the shift of the melting midpoint relative to a reference. Take `C=C(C)C(=O)O[C@H]1C[C@@]2(C)OC(=CC2=O)/C(CO)=C\[C@H]2OC(=O)C(=C)[C@H]12` [GOIAZENSOLIDE]: the IC50 stood at 156 µM in assay [1], 1.08 µM in the assay on Trypanosoma cruzi [22], 0.07 µM in assay [23] and 0.45 µM in the assay with Leishmania donovani [24]. Besides, the thermal shift (ΔTm) in assay [16] was -0.32 °C; in assay [17], -0.84 °C; in assay [18], -1.13 °C; in assay [19], -0.73 °C; in [20], -4.19 °C; in [21] it was -6.51 °C.
For orientation: inhibition means the drop in the measured response relative to a control, in per cent. Take `O=C(/C=C/c1ccc(O)c(O)c1)O[C@H]1[C@H](O)C[C@](O)(C(=O)O)C[C@H]1OC(=O)/C=C/c1ccc(O)c(O)c1`: the inhibition in assay [25] is 10%; in assay [26], 38%. Moreover, the IC50 in [1] stood at 73.2 µM; in the assay with Trypanosoma cruzi [22] it was 286 µM.

The values above are taken from ChEMBL document CHEMBL4261582, “Natural products as inhibitors of Leishmania major dihydroorotate dehydrogenase” (Eur J Med Chem, 2018).
